Source: US20220226321A1, “INHIBITOR OF MNK FOR THE TREATMENT OF NEUROPATHIC PAIN” (Board of Regents, The University of Texas System, priority 2019, published 2022)

Tests used:
[1] = test system: mice; settings: Moy et al. (2017); cited from earlier work
[2] = test system: DRG neurons; settings: prior work; cited from earlier work
[3] = test system: cultured DRG neurons; test: Western blot of cultured DRG neurons treated with IFN-α, IFN-β, ISRIB or poly (I:C); assay type: cell-based, mouse; settings: direct application 10 μg/mL
Protocol: Primary cell culture of mouse DRG neurons and Western blot. Cultured primary DRG neurons were used to test the effects of IFN-α [(300 units (U)/mL] and IFN-β [(300 units (U)/mL] application. For these experiments, mice were anesthetized with isoflurane and killed by decapitation. Then DRGs, from all spinal levels, were dissected and placed in chilled Hanks balanced-salt solution (HBSS, Invitrogen) until processed. Dorsal root ganglia were digested in 1 mg/mL collagenase A (Roche, Mannheim, Germany) for 25 minutes at 37° C. then subsequently digested in a 1:1 mixture of 1 mg/mL collagenase D and papain (Roche) for 20 minutes at 37° C. After this step, dorsal root ganglia were then triturated in a 1:1 mixture of 1 mg/mL trypsin inhibitor (Roche) and bovine serum albumin (BioPharm Laboratories, Bluffdale, Utah), then filtered through a 70 μm cell strainer (Corning, N.Y.). Cells were pelleted then resuspended in DMEM/F12 with GlutaMAX (Thermo Fisher Scientific, MA) containing 10% fetal bovine serum (FBS; Thermo Fisher Scientific), 5 ng/mL NGF, 1% penicillin and streptomycin, and […] to inhibit mitosis of non-neuronal cells and were distributed evenly in a 6-well plate coated with poly-D-lysine (Becton Dickinson, NJ). DRG neurons were maintained in a 37° C. incubator containing 5% CO2 with a media change every other day. On day 6, DRG neurons were treated with either vehicle, IFN-α or IFN-β for 1, 3, 6 and 24 h. Following treatments, cells were rinsed with chilled 1×PBS buffer, harvested in 200 μL of RIPA lysis buffer (50 mM Tris, pH 7.4, 150 mM NaCl, 1 mM EDTA, pH 8.0, and 1% Triton X-100) containing protease and phosphatase inhibitors (Sigma-Aldrich), and then sonicated for 5 seconds. To clear debris, samples were centrifuged at 14,000 rpm for 15 min at 4° C. Ten to 15 μg of protein was loaded into each well and separated by a 10% SDS-PAGE gel. Proteins were transferred to a 0.45 PVDF membrane (Millipore, MA) at 30 V overnight at 4° C. Subsequently, membranes were blocked with 5% non-fat dry milk in 1× Tris buffer solution containing Tween 20 (TTBS) for at least 2 h. Membranes were washed 3 times for 10 minutes each (3×10) in 1×TTBS, then incubated with primary antibodies overnight at 4° C. The following day, membranes were washed 3×10 each then incubated with the corresponding secondary antibodies at room temperature for 1 h. After incubation, membranes were washed with 1×TTBS 3×10 each. Signals were detected using Immobilon Western Chemiluminescent HRP Substrate (Millipore) and then visualized with Bio-Rad ChemiDoc Touch. Membranes were stripped using Restore Western Blot Stripping buffer (Thermo Fisher Scientific) and reprobed with another antibody. Analysis was performed using Image lab 6.0.1 software for Mac (Bio-Rad, Hercules, Calif.).

[4] = test system: mice; test: thermal latency (Hargreaves) after type I IFN or poly (I:C); assay type: in vivo, mouse; settings: 1 mg/kg i.p. for 2 consecutive days, 3-24 h after second administration
Protocol: (§1) Behavior. Mice were housed on 12-hour light/dark cycles with food and water available ad libitum. Mice were randomized to groups from multiple cages to avoid using mice from experimental groups that were cohabitating. Sample size was estimated by performing a power calculation using G*Power (version 3.1.9.2). With 80% power and an expectation of d=2.2 effect size in behavioral experiments, and a set to 0.05, the sample size required was calculated as n=6 per group. The inventors therefore sought to have at least n=6 sample in all behavioral experiments. SD (set at 0.3) for the power calculation was based on previously published mechanical threshold data from the inventors' lab (Moy et al., 2017). Animals were habituated for 1 hour to clear acrylic behavioral chambers before beginning the experiment. For intraplantar injections, drugs were injected in a total volume of 25 μL through a 30-gauge needle. For intraperitoneal injections, drugs were administered in a volume of 100 μL Mechanical paw withdrawal thresholds in mice were measured using the up-down method (Chaplan et al., 1994) with calibrated von Frey filaments (Stoelting Company, WoodDale, Ill.). Thermal latency was measured using a Hargreaves device (IITC Life Science) (Hargreaves et al., 1988) with heated glass settings of 29° C., 40% active laser power, and 20 sec cutoff were used. The experimenter was blinded to the genotype of the mice and the drug condition in all experiments.

[5] = test system: eIF4E; test: immunohistochemistry of p-eIF4E and eIF4E in L5 DRGs; assay type: in vivo, mouse; settings: WT mice, day 2, 3 hr post 2nd injection
Protocol: For tissues, animals were anesthetized with isoflurane and killed by decapitation, and tissues were frozen in O.C.T. on dry ice. Spinal cords were pressure ejected using chilled 1×PBS. Sections of L4-L5 DRGs ([…]) were mounted onto SuperFrost Plus slides (Thermo Fisher Scientific) and fixed in ice-cold 10% formalin in 1×PBS for 1 h then subsequently washed 3×10 each in 1×PBS and processed for immunohistochemistry (IHC). Slides were permeabilized in 50% ethanol for 30 min. After 30 min, slides were washed 3×10 each in 1×PBS. Tissues were blocked for at least 2 h in 1×PBS and 10% NGS. Primary antibodies against NeuN, peripherin, p-eIF4E^S209 and eIF4E were applied and incubated with DRG sections on slides at 4° C. overnight. Immunoreactivity was visualized after 1 h incubation with Alexa Fluor secondary antibodies at room temperature. Images were taken using an Olympus FluoView 1200 confocal microscope. Images are presented as projections of Z stacks, and they are representative of samples taken from 3 animals.

[6] = test system: mice; test: mechanical paw withdrawal threshold (von Frey) after type I IFN or poly (I:C); assay type: in vivo, mouse; settings: 1 mg/kg i.p. for 2 consecutive days, 3-24 h after second administration
Protocol: as §1

[7] = body temperature after intraperitoneal poly (I:C); assay type: in vivo, mouse; settings: 1 mg/kg i.p.

## CC(=O)C1=C(O)C=C2Oc3c(C(N)=O)c(O)cc(O)c3[C@]2(C)C1=O [cercosporamide]
[1]
  cold hypersensitivity induced by peripheral nerve injury: reduced
[2]
  IL-6 induced DRG nociceptor excitability: attenuated

## poly (I:C)
[3]
  p-ERK, p-eIF4E, p-PKR or p-eIF2α: did not increase
[4]
  thermal hypersensitivity: thermal hypersensitivity
[5]
  phosphorylated eIF4E immunoreactivity in L5 DRGs: increased phosphorylated eIF4E immunoreactivity
  total eIF4E protein in L5 DRGs: without affecting total eIF4E protein
[6]
  mechanical hypersensitivity: developed mechanical hypersensitivity
[7]
  core body temperature: increase in core body temperature
